# Literature values in patent US10857230B2, “Co-therapy comprising a small molecule CSF-1R inhibitor and an agonistic antibody that specifically binds CD40 for the treatment of cancer” (Janssen Biotech, Inc., priority 2017, dated 2020).
# Experiments:
# [1] = test system: B cells and dendritic cells; settings: cited from earlier work
# [2] = patient clinical trials; day of antibody intravenous infusion; cited from earlier work
substance,measurement,setting,value
"CP-870,893: cross-linking independent agonistic CD40 antibody; VH and VL of SEQ ID NOs: 44 and 45, may be IgG2",potency in activating B cells relative to dendritic cells,[1],about 20 fold
same,most common side effects,[2],moderate CRS
